{"source": "ChEMBL document CHEMBL5608247", "about": "“Development of a First-in-Class DNMT1/HDAC Inhibitor with Improved Therapeutic Potential and Potentiated Antitumor Immunity” (J Med Chem, 2024)", "key": {"[1]": {"test_system": "MV4-11", "test": "Antiproliferative activity against human MV4-11 cells incubated for 96 hrs by CCK8 assay", "assay_type": "functional, cell-based", "details": "MV4-11, 96 h"}, "[2]": {"test_system": "MV4-11", "test": "Antitumor activity against human MV4-11 cells xenografted in BALB/c nude mouse at 45 mg/kg, ip qd treated for 19 days relative to control", "assay_type": "functional", "details": "MV4-11, 456 h, time 19 day, read-out: TGI"}, "[3]": {"test": "Toxicity in BALB/c nude mouse xenografted with human MV4-11 cells assessed as body weight loss at 45 mg/kg, ip qd treated for 19 days", "assay_type": "organism-based", "details": "in vivo, 456 h, time 19 day"}, "[4]": {"test": "Toxicity in BALB/c nude mouse xenografted with human MV4-11 cells assessed as animal fatality at 45 mg/kg, ip qd treated for 19 days", "assay_type": "organism-based", "details": "in vivo, 456 h, time 19 day"}, "[5]": {"molecular_target": "T1, DNA (cytosine-5)-methyltransferase 1 (Homo sapiens, UniProt P26358)", "T1 sequence (P26358 whole entry, the tested form may be a part)": "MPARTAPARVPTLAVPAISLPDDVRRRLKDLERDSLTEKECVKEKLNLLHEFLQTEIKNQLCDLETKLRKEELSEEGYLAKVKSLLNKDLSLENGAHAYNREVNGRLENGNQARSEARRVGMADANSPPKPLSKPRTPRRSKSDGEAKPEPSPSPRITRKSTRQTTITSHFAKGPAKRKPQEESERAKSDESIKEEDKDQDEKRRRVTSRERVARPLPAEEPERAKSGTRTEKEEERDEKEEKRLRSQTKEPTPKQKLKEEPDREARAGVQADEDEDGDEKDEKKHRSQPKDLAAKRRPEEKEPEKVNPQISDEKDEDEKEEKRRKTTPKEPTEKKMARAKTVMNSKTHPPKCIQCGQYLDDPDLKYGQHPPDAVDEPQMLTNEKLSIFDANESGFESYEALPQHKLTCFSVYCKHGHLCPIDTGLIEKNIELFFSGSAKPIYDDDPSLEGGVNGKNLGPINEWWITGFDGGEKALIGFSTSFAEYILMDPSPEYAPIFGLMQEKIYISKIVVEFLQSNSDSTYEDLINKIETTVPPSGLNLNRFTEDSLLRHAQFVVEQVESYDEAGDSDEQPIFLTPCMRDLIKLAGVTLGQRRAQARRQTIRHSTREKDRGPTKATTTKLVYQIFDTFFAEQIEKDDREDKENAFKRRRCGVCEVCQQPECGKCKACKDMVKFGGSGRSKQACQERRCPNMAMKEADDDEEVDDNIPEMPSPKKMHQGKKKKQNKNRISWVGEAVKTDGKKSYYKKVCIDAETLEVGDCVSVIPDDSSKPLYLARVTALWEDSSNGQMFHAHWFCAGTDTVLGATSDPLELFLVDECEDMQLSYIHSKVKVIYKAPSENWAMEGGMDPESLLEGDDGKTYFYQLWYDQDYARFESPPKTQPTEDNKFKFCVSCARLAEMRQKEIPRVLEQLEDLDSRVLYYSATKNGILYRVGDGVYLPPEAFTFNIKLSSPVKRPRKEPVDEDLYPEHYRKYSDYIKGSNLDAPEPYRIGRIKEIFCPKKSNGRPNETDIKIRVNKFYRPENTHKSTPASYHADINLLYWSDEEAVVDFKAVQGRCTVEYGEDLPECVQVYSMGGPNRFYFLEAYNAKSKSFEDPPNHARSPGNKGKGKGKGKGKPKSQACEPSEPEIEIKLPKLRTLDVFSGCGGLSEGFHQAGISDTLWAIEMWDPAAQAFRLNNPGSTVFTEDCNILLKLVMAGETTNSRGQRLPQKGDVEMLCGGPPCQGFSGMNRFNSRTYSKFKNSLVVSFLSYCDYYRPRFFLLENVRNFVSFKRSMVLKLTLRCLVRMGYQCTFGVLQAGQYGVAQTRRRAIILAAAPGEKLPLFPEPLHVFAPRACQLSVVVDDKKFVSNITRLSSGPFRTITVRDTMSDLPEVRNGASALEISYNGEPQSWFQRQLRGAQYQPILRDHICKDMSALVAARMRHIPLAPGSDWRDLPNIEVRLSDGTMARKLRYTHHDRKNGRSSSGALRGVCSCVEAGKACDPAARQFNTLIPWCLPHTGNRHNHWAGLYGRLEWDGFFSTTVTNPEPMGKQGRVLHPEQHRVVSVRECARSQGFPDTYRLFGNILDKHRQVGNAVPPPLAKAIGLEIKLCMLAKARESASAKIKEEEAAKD", "test": "Induction of thermal stabilization of N-terminal 6xHis-FLAG-tagged […] human DNMT1 (698 to 1616 residues) extracted from Sf9 cells assessed as change in melting temperature at 10 uM by SYPRO Orange dye based PTS assay (reference value: 0.0 degreeC)", "assay_type": "cell-based"}, "[6]": {"molecular_target": "T1, DNA (cytosine-5)-methyltransferase 1", "test": "Inhibition of DNMT1 in human MV4-11 cells at 1 uM incubated for 6 hrs in presence of MG132 by Western blot analysis", "assay_type": "cell-based"}, "[7]": {"molecular_target": "T1, DNA (cytosine-5)-methyltransferase 1", "test": "Inhibition of DNMT1 in human MV4-11 cells at 1 uM incubated for 6 hrs in presence of CQ by Western blot analysis", "assay_type": "cell-based"}, "[8]": {"molecular_target": "T1, DNA (cytosine-5)-methyltransferase 1", "test": "Inhibition of DNMT1 in human MV4-11 cells at 1 uM incubated for 6 hrs in presence of Z-VAD-FMK by Western blot analysis", "assay_type": "cell-based"}, "[9]": {"molecular_target": "T1, DNA (cytosine-5)-methyltransferase 1", "test": "Inhibition of DNMT1 in human HL-60 cells at 1 uM incubated for 6 hrs in presence of MG132 by Western blot analysis", "assay_type": "cell-based"}, "[10]": {"molecular_target": "T1, DNA (cytosine-5)-methyltransferase 1", "test": "Inhibition of DNMT1 in human HL-60 cells at 1 uM incubated for 6 hrs in presence of CQ by Western blot analysis", "assay_type": "cell-based"}, "[11]": {"molecular_target": "T1, DNA (cytosine-5)-methyltransferase 1", "test": "Inhibition of DNMT1 in human HL-60 cells at 1 uM incubated for 6 hrs in presence of Z-VAD-FMK by Western blot analysis", "assay_type": "cell-based"}, "[12]": {"molecular_target": "T1, DNA (cytosine-5)-methyltransferase 1", "test": "Inhibition of DNMT1 in human MV4-11 cells assessed as ABT1 promoter methylation at 300 nM incubated for 3 days by Bisulfite Sequencing PCR analysis (reference value: 99.3 %)", "assay_type": "cell-based", "set-up": "scale not given: the % may be the effect or the level left", "details": "time 3.0 day"}, "[13]": {"test_system": "MV4-11", "test": "Upregulation of p57 expression in human MV4-11 cells at 100 nM incubated for 2 days in presence of SAHA by RNA-Seq analysis", "assay_type": "functional, cell-based", "details": "time 2.0 day"}, "[14]": {"test_system": "MV4-11", "test": "Upregulation of BLK expression in human MV4-11 cells at 100 nM incubated for 2 days in presence of SAHA by RNA-Seq analysis", "assay_type": "functional, cell-based", "details": "time 2.0 day"}, "[15]": {"test_system": "MV4-11", "test": "Upregulation of S100A16 expression in human MV4-11 cells at 100 nM incubated for 2 days in presence of SAHA by RNA-Seq analysis", "assay_type": "functional, cell-based", "details": "time 2.0 day"}, "[16]": {"molecular_target": "T1, DNA (cytosine-5)-methyltransferase 1", "test": "Synergistic inhibition of DNMT1 in human MV4-11 cells at 100 nM incubated for 2 days in presence of SAHA by RNA-Seq analysis", "assay_type": "cell-based", "details": "time 2.0 day"}, "[17]": {"molecular_target": "Histone deacetylase (Homo sapiens) (UniProt Q13547+O15379+Q9UBN7+Q92769+Q9UQL6+Q8WUI4+Q9BY41+Q96DB2+P56524+Q9UKV0+Q969S8)", "test": "Inhibition of HDAC in human MV4-11 cells at 100 nM incubated for 2 days in presence of SAHA by RNA-Seq analysis", "assay_type": "cell-based", "details": "time 2.0 day"}, "[18]": {"test_system": "MV4-11", "test": "Downregulation of MYC expression in human MV4-11 cells at 100 nM incubated for 2 days in presence of SAHA by RNA-Seq analysis", "assay_type": "functional, cell-based", "details": "time 2.0 day"}, "[19]": {"test_system": "MV4-11", "test": "Downregulation of GPR183 expression in human MV4-11 cells at 100 nM incubated for 2 days in presence of SAHA by RNA-Seq analysis", "assay_type": "functional, cell-based", "details": "time 2.0 day"}, "[20]": {"test_system": "MV4-11", "test": "Downregulation of FOXH1 expression in human MV4-11 cells at 100 nM incubated for 2 days in presence of SAHA by RNA-Seq analysis", "assay_type": "functional, cell-based", "details": "time 2.0 day"}, "[21]": {"test_system": "MV4-11", "test": "Downregulation of GLIS2 expression in human MV4-11 cells at 100 nM incubated for 2 days in presence of SAHA by RNA-Seq analysis", "assay_type": "functional, cell-based", "details": "time 2.0 day"}, "[22]": {"test_system": "MV4-11", "test": "Inhibition of cell viability in human MV4-11 cells incubated for 4 days in presence of SAHA by CCK8 assay", "assay_type": "functional, cell-based", "details": "MV4-11, 96 h"}, "[23]": {"test_system": "HL-60", "test": "Inhibition of cell viability in human HL-60 cells incubated for 4 days in presence of SAHA by CCK8 assay", "assay_type": "functional, cell-based", "details": "HL-60, 96 h"}, "[24]": {"test_system": "Kasumi 1", "test": "Inhibition of cell viability in human Kasumi 1 cells incubated for 4 days in presence of SAHA by CCK8 assay", "assay_type": "functional, cell-based", "details": "Kasumi 1, 96 h"}, "[25]": {"test": "Inhibition of cell viability in human HSPC cells incubated for 4 days in presence of SAHA by CCK8 assay", "assay_type": "toxicity, cell-based"}, "[26]": {"test_system": "MV4-11", "test": "Antitumor activity against human MV4-11 cells xenografted in BALB/c nude mouse at 30 mg/kg, ip qd for 27 days in presence of SAHA relative to control", "assay_type": "functional", "details": "MV4-11, 648 h, time 27 day, read-out: TGI"}, "[27]": {"test": "Toxicity in BALB/c nude mouse xenografted with human MV4-11 cells assessed as body weight loss at 30 mg/kg, ip qd for 27 days in presence of SAHA", "assay_type": "organism-based", "details": "in vivo, 648 h, time 27 day"}, "[28]": {"test_system": "MC-38", "test": "Upregulation of Oas2 mRNA level in mouse MC38 cells at 1 to 3 uM incubated for 3 days in presence of SAHA by qRT-PCR analysis", "assay_type": "functional, cell-based", "details": "dose 1-3 µM, time 3.0 day"}, "[29]": {"test_system": "MC-38", "test": "Upregulation of Isg15 mRNA level in mouse MC38 cells at 1 to 3 uM incubated for 3 days in presence of SAHA by qRT-PCR analysis", "assay_type": "functional, cell-based", "details": "dose 1-3 µM, time 3.0 day"}, "[30]": {"test_system": "MC-38", "test": "Upregulation of IAPEz mRNA level in mouse MC38 cells at 1 to 3 uM incubated for 3 days in presence of SAHA by qRT-PCR analysis", "assay_type": "functional, cell-based", "details": "dose 1-3 µM, time 3.0 day"}, "[31]": {"test_system": "MC-38", "test": "Antitumor activity against mouse MC38 cells allografted in immunodeficient BALB/c nude mouse at 30 mg/kg, ip qd for 15 days in presence of SAHA relative to control", "assay_type": "functional", "details": "MC-38, 360 h, time 15 day, read-out: TGI"}, "[32]": {"test": "Toxicity in immunodeficient BALB/c nude mouse allografted with mouse MC38 cells assessed as drug tolerance at 30 mg/kg, ip qd for 15 days in presence of SAHA", "assay_type": "organism-based, MC-38", "details": "in vivo, 360 h, time 15 day"}, "[33]": {"test": "Toxicity in immunodeficient BALB/c nude mouse allografted with mouse MC38 cells assessed as body weight loss at 30 mg/kg, ip qd for 15 days in presence of SAHA", "assay_type": "organism-based, MC-38", "details": "in vivo, 360 h, time 15 day"}, "[34]": {"test_system": "MC-38", "test": "Immunomodulatory activity in mouse MC38 cells allografted in mouse assessed as accumulation of T cells at 30 mg/kg, ip qd in presence of SAHA", "assay_type": "functional, organism-based"}, "[35]": {"test_system": "MC-38", "test": "Immunomodulatory activity in mouse MC38 cells allografted in mouse assessed as accumulation of NKT cells at 30 mg/kg, ip qd in presence of SAHA", "assay_type": "functional, organism-based"}, "[36]": {"test_system": "MC-38", "test": "Immunomodulatory activity in mouse MC38 cells allografted in mouse assessed as increase in IFN-gamma-positive cells at 30 mg/kg, ip qd in presence of SAHA", "assay_type": "functional, organism-based"}, "[37]": {"test_system": "MC-38", "test": "Immunomodulatory activity in mouse MC38 cells allografted in mouse assessed as polarization of macrophages towards tumor -suppressing M1 phenotype at 30 mg/kg, ip qd in presence of SAHA", "assay_type": "functional, organism-based"}, "[38]": {"test_system": "MC-38", "test": "Immunomodulatory activity in mouse MC38 cells allografted in mouse assessed as inhibition of pro-tumor M2 polarization at 30 mg/kg, ip qd in presence of SAHA", "assay_type": "functional, organism-based"}}, "note": "Active and inactive are the calls of the source. The calls are words filed in the database; no cut-off is given here."}
{"compound": "CCc1c(C#N)c(SC(C(N)=O)c2ccccc2)nc(N2CCC(N)CC2)c1C#N", "note": "(stereo not drawn)", "values": [{"measurement": "IC50", "setting": "[1]", "result": "> 5", "unit": "µM"}, {"measurement": "inhibition in vivo at 45 mg/kg", "setting": "[2]", "result": 93, "unit": "%"}, {"measurement": "Activity", "setting": "[3]", "result": "Toxic"}, {"measurement": "Activity", "setting": "[4]", "result": "Toxic"}, {"measurement": "ΔTm", "setting": "[5]", "result": 8, "unit": "°C"}, {"measurement": "inhibition", "setting": "[6]", "result": "inactive"}, {"measurement": "inhibition", "setting": "[7]", "result": "Active"}, {"measurement": "inhibition", "setting": "[8]", "result": "Active"}, {"measurement": "inhibition", "setting": "[9]", "result": "inactive"}, {"measurement": "inhibition", "setting": "[10]", "result": "Active"}, {"measurement": "inhibition", "setting": "[11]", "result": "Active"}, {"measurement": "Activity", "setting": "[12]", "result": 6.43, "unit": "%"}, {"measurement": "Activity", "setting": "[13]", "result": "Active"}, {"measurement": "Activity", "setting": "[14]", "result": "Active"}, {"measurement": "Activity", "setting": "[15]", "result": "Active"}, {"measurement": "inhibition", "setting": "[16]", "result": "Active"}, {"measurement": "inhibition", "setting": "[17]", "result": "Active"}, {"measurement": "Activity", "setting": "[18]", "result": "Active"}, {"measurement": "Activity", "setting": "[19]", "result": "Active"}, {"measurement": "Activity", "setting": "[20]", "result": "Active"}, {"measurement": "Activity", "setting": "[21]", "result": "Active"}, {"measurement": "IC50", "setting": "[22]", "result": 400, "unit": "nM"}, {"measurement": "IC50", "setting": "[23]", "result": 320, "unit": "nM"}, {"measurement": "IC50", "setting": "[24]", "result": 380, "unit": "nM"}, {"measurement": "IC50 at 4 days", "setting": "[25]", "result": 800, "unit": "nM"}, {"measurement": "inhibition in vivo at 30 mg/kg", "setting": "[26]", "result": 89, "unit": "%"}, {"measurement": "Activity", "setting": "[27]", "result": "Toxic"}, {"measurement": "Activity", "setting": "[28]", "result": "Active"}, {"measurement": "Activity", "setting": "[29]", "result": "Active"}, {"measurement": "Activity", "setting": "[30]", "result": "Active"}, {"measurement": "inhibition in vivo at 30 mg/kg", "setting": "[31]", "result": 24, "unit": "%"}, {"measurement": "Activity", "setting": "[32]", "result": "Non-Toxic"}, {"measurement": "Activity", "setting": "[33]", "result": "Non-Toxic"}, {"measurement": "Activity", "setting": "[34]", "result": "Active"}, {"measurement": "Activity", "setting": "[35]", "result": "Active"}, {"measurement": "Activity", "setting": "[36]", "result": "Active"}, {"measurement": "Activity", "setting": "[37]", "result": "Active"}, {"measurement": "inhibition", "setting": "[38]", "result": "Active"}]}
